Results: PMC8327158, “PEGylated AdipoRon derivatives improve glucose and lipid metabolism under insulinopenic and high-fat diet conditions” (Journal of Lipid Research, 2021)

Tested on: HFD-fed wild-type mice
Experiment: Sphingolipid levels in tissues and serum of HFD-fed mice by mass spectrometry
Type: in vivo, mouse
Conditions: for Cer 14:0 / Cer 16:0 / Cer 18:0 / Cer 18:1 / Cer 20:0 / Cer 22:0 / Cer 24:0 / Cer 24:1 / Cer 26:0 / Cer 26:1 / DeoxySphinganie / Deoxysphingosine / Hexosyl 14:0 / Hexosyl 16:0 / Hexosyl 18:0 / Hexosyl 20:0 / Hexosyl 22:0 / Hexosyl 24:0 / Hexosyl 24:1 / Lactosyl 16:0 / Lactosyl 18:0 / Lactosyl 22:0 / Lactosyl 24:1 / Lactosyl C24:0 / Sphingaine1P / Sphinganine / Sphingosine / Sphingosine1P / dCer 16:0 / dCer 18:0 / dCer 20:0 / dCer 22:0 / dCer 24:0 / dCer 24:1: 5 mg/kg twice a day 5 days, average ± SD
Method: Six-week-old wild-type male mice were fed HFD for 4 weeks or 7 months In total, 5 mg/Kg of PBS, Adiporon, AdipoRonPEG5, AdipoRonPEG6HTL were injected twice a day for 5 days. After 5 days of treatment, systemic test is performed, and serum (Before and after treatment), subcutaneous, epididymal, liver, heart samples were harvested for qPCR and sphingolipid analysis.
Flash-frozen tissue samples (~40 mg) in a borosilicate glass tube were quenched with 2.0 ml of organic extraction solvent (isopropanol: ethyl acetate, 15:85; v:v) and homogenized with a mechanical tissue disruptor. Immediately afterward, 20 μl of organic internal standard solution was added (Ceramide/Sphingoid Internal Standard Mixture II diluted 1:10 in ethanol). The mixture was vortexed for 20 s and sonicated in ultrasonic bath for 40 min at 40°C. The organic extract was allowed to reach room temperature, and 1.5 ml of HPLC water was added and a two-phase liquid-liquid extraction was performed. The upper phase was transferred to a new clean tube, and the lower aqueous phase containing the protein pellet was re-extracted with additional 2.0 ml of organic extraction solvent. The organic phases were combined and dried under nitrogen stream at 40°C. Dried extracts were stored at –80°C until analysis. For analysis of ceramides and sphingoid base species, the dried residues were reconstituted in 200 μl of methanol. Sphingomyelins required a sample dilution of 1:50 in methanol prior to analysis. Serum sphingolipids were extracted using a similar methodology requiring 25 μl of serum.
Liver, subcutaneous adipose tissue, pancreas, pancreatic islets were initially homogenized in 500 μl of cold PBS using an ultrasonic probe disruptor and keeping the sample on ice during sonication. In total, 50 μl of aqueous homogenate was aliquoted for protein determination. In total, 400 μl of the lysate was immediately quenched in 2.0 ml of organic extraction solvent.
In total, 5 μl of reconstituted samples was injected into an LC/MS/MS system for the analysis of ceramides and sphingoid bases, and 1 μl injection was required for the analysis of sphingomyelins. The system consisted of a Shimadzu LCMS-8050 triple-quadrupole mass spectrometer with the dual ion source operating in electrospray positive ionization mode. The mass spectrometer is coupled to a Shimadzu Nexera X2 UHPLC system equipped with three solvent delivery modules LC-30AD, three degassing units DGU-20A5R, an autosampler SIL-30ACMP, and a column oven CTO-20AC operating at 40°C (Shimadzu Scientific Instruments, Columbia, MD). Six sphingoid bases (d18:1 sphingosine, d18:1 sphingosine-1-phosphate, d18:1 deoxysphingosine, d18:0 sphinganine, d18:0 sphinganine-1-phosphate, d18:0 deoxysphinganine) and […] ceramide species and their metabolites (C16:0, C16:0 dihydroceramide, C16:0 glucosylceramide, C16:0 lactosylceramide, C16:0 sphingomyelin, C18:0, C18:0 dihydroceramide, C18:0 glucosylceramide, C18:0 sphingomyelin, C18:1, C20:0, C22:0, C22:0 glucosylceramide, C24:0, C24:0 dihydroceramide, C24:0 lactosylceramide, C24:0 sphingomyelin, C24:1, C24:1 dihydroceramide, C24:1 glucosylceramide, C24:1 sphingomyelin). Quantitative analysis of sphingolipids was achieved using selective reaction monitoring scan mode. Lipid separation was achieved by reverse phase LC on a 2.1 (i.d.) × 150 mm Ascentis Express C8, 2.7 micron (Supelco, Bellefonte, PA) column under gradient elution, using three different mobile phases: eluent A consisting of methanol/water/formic acid, 600/400/0.8, v/v/v with 5 mM ammonium formate, eluent B consisting of methanol/formic acid, 1,000/0.8, v/v with 5 mM ammonium formate, and eluent C consisting of CH3OH/CH2Cl2 350/650. The concentration of each metabolite was determined according to calibration curves using the peak-area ratio of analyte versus corresponding internal standard. Calibration curves were generated using serial dilutions of each target analyte.

O=C(COc1ccc(C(=O)c2ccccc2)cc1)NC1CCN(Cc2ccc(OCCOCCOCCOCCOCCO)cc2)CC1 [AdipoRonPEG5]
pancreas S1P level (5 mg/kg): trend of elevating S1P
pancreas dihydroceramide levels (5 mg/kg): minimal impact
scWAT ceramide levels (5 mg/kg): neither AdipoRon nor AdipoRonPEG5 had a noticeable impact
pancreas C24:0 and C24:1 ceramides (5 mg/kg, vs saline controls or AdipoRon): significant reduction
hepatic dihydroceramides (IP 5 mg/kg): drastically reduced
serum dihydroceramides dC16:0, dC18:0, dC22:0, dC24:0 (IP 5 mg/kg): drastically lowered
sphingoid bases including S1P in the liver (IP 5 mg/kg): overall increase
Cer 14:0 (liver): 10700.6 ± 4986.87 pg/mg
Cer 16:0 (liver): 10811.2 ± 3038.11 pg/mg
Cer 18:0 (liver): 41588.7 ± 18827.94 pg/mg
Cer 18:1 (liver): 0 pg/mg
Cer 20:0 (liver): 1285175.8 ± 314117.31 pg/mg
Cer 22:0 (liver): 17214621.7 ± 3730792.66 pg/mg
Cer 24:0 (liver): 13003125.0 ± 3100177.0 pg/mg
Cer 24:1 (liver): 11982004.5 ± 3750645.21 pg/mg
Cer 26:0 (liver): 114936.8 ± 43584.75 pg/mg
Cer 26:1 (liver): 108478.1 ± 38829.61 pg/mg
DeoxySphinganie (liver): 17056.5 ± 5841.85 pg/mg
Deoxysphingosine (liver): 674.4 ± 179.33 pg/mg
Hexosyl 14:0 (liver): 9405.4 ± 4098.51 pg/mg
Hexosyl 16:0 (liver): 2563091.7 ± 636477.68 pg/mg
Hexosyl 18:0 (liver): 8702.7 ± 4241.12 pg/mg
Hexosyl 20:0 (liver): 91341.0 ± 29325.4 pg/mg
Hexosyl 22:0 (liver): 18299628.4 ± 6151493.38 pg/mg
Hexosyl 24:0 (liver): 9345685.4 ± 2422218.78 pg/mg
Hexosyl 24:1 (liver): 8806042.3 ± 2575774.26 pg/mg
Lactosyl 16:0 (liver): 857779.3 ± 221964.15 pg/mg
Lactosyl 18:0 (liver): 0.0 ± 0.0 pg/mg
Lactosyl 22:0 (liver): 403630.8 ± 109007.39 pg/mg
Lactosyl 24:1 (liver): 403865.6 ± 85387.31 pg/mg
Lactosyl C24:0 (liver): 284732.8 ± 96368.82 pg/mg
Sphingaine1P (liver): 124644.1 ± 37940.82 pg/mg
Sphinganine (liver): 567456.6 ± 215845.28 pg/mg
Sphingosine (liver): 1814140 ± 638775.97 pg/mg
Sphingosine1P (liver): 423169.5 ± 201268.1 pg/mg
dCer 16:0 (liver): 7004.1 ± 1704.17 pg/mg
dCer 18:0 (liver): 30523.3 ± 10512.82 pg/mg
dCer 20:0 (liver): 17088.9 ± 5527.47 pg/mg
dCer 22:0 (liver): 85360 ± 20574 pg/mg
dCer 24:0 (liver): 355838.6 ± 67813.11 pg/mg
dCer 24:1 (liver): 64056.2 ± 12063.67 pg/mg
Cer 14:0 (pancreas): 20.8 ± 6.06 pg/mg
Cer 16:0 (pancreas): 28.6 ± 10.14 pg/mg
Cer 18:0 (pancreas): 31.4 ± 12.12 pg/mg
Cer 18:1 (pancreas): 0 pg/mg
Cer 20:0 (pancreas): 1410.3 ± 372.3 pg/mg
Cer 22:0 (pancreas): 5266.0 ± 1349.3 pg/mg
Cer 24:0 (pancreas): 16049.4 ± 4089.83 pg/mg
Cer 24:1 (pancreas): 7744.9 ± 1489.17 pg/mg
Cer 26:0 (pancreas): 162.6 ± 42.67 pg/mg
Cer 26:1 (pancreas): 88.6 ± 17.21 pg/mg
DeoxySphinganie (pancreas): 2.4 ± 0.49 pg/mg
Deoxysphingosine (pancreas): 0.0 ± 0.0 pg/mg
Hexosyl 14:0 (pancreas): 4.2 ± 0.35 pg/mg
Hexosyl 16:0 (pancreas): 2792.5 ± 371.94 pg/mg
Hexosyl 18:0 (pancreas): 8.8 ± 4.08 pg/mg
Hexosyl 20:0 (pancreas): 111.6 ± 39.83 pg/mg
Hexosyl 22:0 (pancreas): 5728.8 ± 1888.49 pg/mg
Hexosyl 24:0 (pancreas): 3233.9 ± 524.83 pg/mg
Hexosyl 24:1 (pancreas): 1360.1 ± 170.0 pg/mg
Lactosyl 16:0 (pancreas): 1043.4 ± 60.99 pg/mg
Lactosyl 18:0 (pancreas): 61.7 ± 15.72 pg/mg
Lactosyl 22:0 (pancreas): 258.7 ± 89.43 pg/mg
Lactosyl 24:1 (pancreas): 337.2 ± 90.18 pg/mg
Lactosyl C24:0 (pancreas): 2121.1 ± 714.63 pg/mg
Sphingaine1P (pancreas): 25.6 ± 5.99 pg/mg
Sphinganine (pancreas): 34.5 ± 9.74 pg/mg
Sphingosine (pancreas): 219.2 ± 31.51 pg/mg
Sphingosine1P (pancreas): 113.2 ± 32.02 pg/mg
dCer 16:0 (pancreas): 5.7 ± 3.12 pg/mg
dCer 18:0 (pancreas): 0.0 ± 0.0 pg/mg
dCer 20:0 (pancreas): 1.9 ± 0.7 pg/mg
dCer 22:0 (pancreas): 54.2 ± 43.08 pg/mg
dCer 24:0 (pancreas): 302.0 ± 155.43 pg/mg
dCer 24:1 (pancreas): 47.3 ± 31.67 pg/mg
Cer 14:0 (scWAT): 32099.4 ± 10520.94 pg/mg
Cer 16:0 (scWAT): 191093.1 ± 51596.09 pg/mg
Cer 18:0 (scWAT): 82819.6 ± 17887.79 pg/mg
Cer 18:1 (scWAT): 21443 ± 6799 pg/mg
Cer 20:0 (scWAT): 147177.5 ± 8589.73 pg/mg
Cer 22:0 (scWAT): 712843.5 ± 129405.16 pg/mg
Cer 24:0 (scWAT): 2685762.3 ± 976754.88 pg/mg
Cer 24:1 (scWAT): 3013765.2 ± 650894.91 pg/mg
Cer 26:0 (scWAT): 24885.1 ± 6744.06 pg/mg
Cer 26:1 (scWAT): 30570.9 ± 6986.86 pg/mg
DeoxySphinganie (scWAT): 1329.3 ± 1128.06 pg/mg
Deoxysphingosine (scWAT): 0.0 ± 0.0 pg/mg
Hexosyl 14:0 (scWAT): 5193.4 ± 2870.39 pg/mg
